Blank lines part the entries; values can stand above or below the molecule they belong to.
Tests used:
[1] = system: stomach tissues gene expression; assay: Stomach RNA-sequencing, effect size evaluation of treatment contrasts; type: in vivo, mice
Description: (§1) Male C57Bl/6 mice, aged 20 and 78 weeks, were obtained from Jackson labs. Animals were exposed to 12 hr light dark cycles and provided Teklad standard mouse diet and water ad lib.
(§2) Animals were dosed once daily by oral gavage in the morning for a total of 14 days. Animals were fasted 3-4 hours prior to dosing and at least 1 hour following dosing, with fasting not to exceed 6 hours. The test article was dissolved in 0.5% hydroxypropylcellulose in water. On day 15 the animals were euthanized by CO2 asphyxiation, necropsied, and tissues prepared for histology and RNAseq analysis.
Samples of stomach tissues from the mice were analysed by RNA-sequencing on an Illumina platform.
A four-fold change in expression between groups was used as a measure of pseudo-significance in the absence of replicate samples. At this threshold, differentially expressed genes were identified in all contrasts. […]

stomach mRNA = assay: Stomach transcriptome (RNAseq) after oral ENT-01 in old mice; type: in vivo; details: old mice after treatment
Description: as §1, §2
The GI tracts of the animals were sectioned into stomach, duodenum, jejunum, ileum, caecum, colon, and rectum. The tissues were then sent for histology, and the transcriptomes analyzed by RNAseq.

PTPN11/SHP2-FL (E76K) = target: T1, PTPN11/SHP2-FL (E76K) (Homo sapiens, UniProt Q06124, E76K); assay: Phosphatase assay PTPN11/SHP2-FL (E76K)
T1 sequence (Q06124 2-597 isoform Q06124-1 E76K): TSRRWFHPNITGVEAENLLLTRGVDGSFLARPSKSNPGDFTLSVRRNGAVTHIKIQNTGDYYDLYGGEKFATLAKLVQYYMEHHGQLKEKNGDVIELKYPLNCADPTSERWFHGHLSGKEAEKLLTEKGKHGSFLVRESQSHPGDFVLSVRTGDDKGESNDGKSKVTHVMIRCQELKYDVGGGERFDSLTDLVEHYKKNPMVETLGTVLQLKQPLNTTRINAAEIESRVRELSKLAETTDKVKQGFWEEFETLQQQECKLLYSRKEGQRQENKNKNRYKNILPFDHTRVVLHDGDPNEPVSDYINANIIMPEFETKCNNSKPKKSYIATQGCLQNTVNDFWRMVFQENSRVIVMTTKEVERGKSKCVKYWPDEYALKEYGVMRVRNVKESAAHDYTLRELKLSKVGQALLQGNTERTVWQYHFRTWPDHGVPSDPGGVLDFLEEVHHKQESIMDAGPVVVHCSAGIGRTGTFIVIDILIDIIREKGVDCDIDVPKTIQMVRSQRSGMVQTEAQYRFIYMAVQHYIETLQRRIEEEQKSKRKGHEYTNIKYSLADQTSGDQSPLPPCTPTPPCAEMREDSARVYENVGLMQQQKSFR

PTPN2/TC-PTP = target: T2, PTPN2/TC-PTP (Homo sapiens, UniProt P17706); assay: Phosphatase assay PTPN2/TC-PTP; type: biochemical
T2 construct: purchased Recation Biology Inc
T2 sequence (P17706 1-415): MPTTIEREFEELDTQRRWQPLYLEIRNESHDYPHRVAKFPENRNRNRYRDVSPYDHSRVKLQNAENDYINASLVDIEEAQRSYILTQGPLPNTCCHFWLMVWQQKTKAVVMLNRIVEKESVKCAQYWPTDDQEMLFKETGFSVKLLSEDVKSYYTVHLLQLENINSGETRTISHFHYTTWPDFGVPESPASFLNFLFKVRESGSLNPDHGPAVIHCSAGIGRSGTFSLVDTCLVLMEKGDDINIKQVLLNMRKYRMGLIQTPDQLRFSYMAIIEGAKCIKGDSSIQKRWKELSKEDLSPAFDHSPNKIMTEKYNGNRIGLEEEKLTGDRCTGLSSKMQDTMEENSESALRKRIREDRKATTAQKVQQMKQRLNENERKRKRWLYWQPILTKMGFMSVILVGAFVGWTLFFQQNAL

PP1B = target: T3, PP1B (Homo sapiens, UniProt P62140); assay: Phosphatase assay PP1B (DiFMUP fluorescence); type: biochemical
T3 construct: purchased Recation Biology Inc
T3 sequence (P62140 whole entry): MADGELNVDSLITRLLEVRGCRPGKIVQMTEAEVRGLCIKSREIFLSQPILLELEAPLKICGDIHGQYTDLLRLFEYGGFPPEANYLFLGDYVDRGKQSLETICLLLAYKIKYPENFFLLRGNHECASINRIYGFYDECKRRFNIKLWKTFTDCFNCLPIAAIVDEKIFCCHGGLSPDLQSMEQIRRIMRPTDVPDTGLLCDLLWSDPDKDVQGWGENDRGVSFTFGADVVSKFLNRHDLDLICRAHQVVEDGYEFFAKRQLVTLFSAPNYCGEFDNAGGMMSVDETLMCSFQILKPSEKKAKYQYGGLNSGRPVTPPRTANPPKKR

PTPN6/SHP1 = target: T4, PTPN6/SHP1 (Homo sapiens, UniProt P29350); assay: Phosphatase assay PTPN6/SHP1; type: biochemical
T4 construct: purchased Recation Biology Inc
T4 sequence (P29350 whole entry): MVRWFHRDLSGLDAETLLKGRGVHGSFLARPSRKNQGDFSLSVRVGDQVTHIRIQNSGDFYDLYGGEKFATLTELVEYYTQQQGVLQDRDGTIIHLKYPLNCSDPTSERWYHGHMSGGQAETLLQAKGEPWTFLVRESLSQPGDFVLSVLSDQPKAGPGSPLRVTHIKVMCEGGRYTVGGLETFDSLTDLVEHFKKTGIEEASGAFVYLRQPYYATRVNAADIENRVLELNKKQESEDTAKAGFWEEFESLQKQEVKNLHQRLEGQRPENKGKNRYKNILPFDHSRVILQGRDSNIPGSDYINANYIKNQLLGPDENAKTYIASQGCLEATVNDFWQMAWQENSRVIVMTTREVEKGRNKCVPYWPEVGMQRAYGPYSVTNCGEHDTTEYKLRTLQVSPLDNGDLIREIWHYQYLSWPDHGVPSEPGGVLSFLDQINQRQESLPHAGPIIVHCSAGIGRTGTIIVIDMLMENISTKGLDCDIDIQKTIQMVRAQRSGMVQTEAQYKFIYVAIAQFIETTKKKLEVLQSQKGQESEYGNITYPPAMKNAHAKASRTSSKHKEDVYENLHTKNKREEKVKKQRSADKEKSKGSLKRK

[2] = target: T5, PP2A Alpha/PP2R1A Complex (Homo sapiens, UniProt P67775); assay: Phosphatase assay PP2A Alpha/PP2R1A Complex; type: biochemical
T5 construct: purchased Recation Biology Inc
T5 sequence (P67775 whole entry): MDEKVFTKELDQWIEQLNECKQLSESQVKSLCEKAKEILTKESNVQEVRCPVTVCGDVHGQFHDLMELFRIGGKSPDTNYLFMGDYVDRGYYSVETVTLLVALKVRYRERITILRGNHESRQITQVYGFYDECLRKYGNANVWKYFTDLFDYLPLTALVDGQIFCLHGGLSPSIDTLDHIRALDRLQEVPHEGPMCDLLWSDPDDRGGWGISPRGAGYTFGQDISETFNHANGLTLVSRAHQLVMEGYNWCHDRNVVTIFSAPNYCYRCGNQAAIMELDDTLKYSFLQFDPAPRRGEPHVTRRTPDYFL
T5 sequence (P30153 whole entry partner): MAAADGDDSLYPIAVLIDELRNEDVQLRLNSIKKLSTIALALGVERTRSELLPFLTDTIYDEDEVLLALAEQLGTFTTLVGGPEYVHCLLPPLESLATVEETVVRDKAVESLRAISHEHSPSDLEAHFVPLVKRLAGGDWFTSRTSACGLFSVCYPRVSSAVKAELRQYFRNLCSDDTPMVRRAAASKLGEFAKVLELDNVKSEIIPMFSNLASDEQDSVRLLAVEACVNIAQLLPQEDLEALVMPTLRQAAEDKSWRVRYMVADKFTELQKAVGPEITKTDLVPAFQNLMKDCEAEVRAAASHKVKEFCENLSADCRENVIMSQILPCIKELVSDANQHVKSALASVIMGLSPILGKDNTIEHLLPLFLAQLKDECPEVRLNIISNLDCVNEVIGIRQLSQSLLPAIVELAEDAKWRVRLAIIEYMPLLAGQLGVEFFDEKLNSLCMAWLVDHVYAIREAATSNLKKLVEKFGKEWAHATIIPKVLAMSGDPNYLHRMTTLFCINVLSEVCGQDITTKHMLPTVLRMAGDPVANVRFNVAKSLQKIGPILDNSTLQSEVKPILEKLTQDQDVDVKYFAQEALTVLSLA

PP1A = target: T6, PP1A (Homo sapiens, UniProt P62136); assay: Phosphatase assay PP1A (DiFMUP fluorescence); type: biochemical
T6 construct: purchased Recation Biology Inc
T6 sequence (P62136 whole entry): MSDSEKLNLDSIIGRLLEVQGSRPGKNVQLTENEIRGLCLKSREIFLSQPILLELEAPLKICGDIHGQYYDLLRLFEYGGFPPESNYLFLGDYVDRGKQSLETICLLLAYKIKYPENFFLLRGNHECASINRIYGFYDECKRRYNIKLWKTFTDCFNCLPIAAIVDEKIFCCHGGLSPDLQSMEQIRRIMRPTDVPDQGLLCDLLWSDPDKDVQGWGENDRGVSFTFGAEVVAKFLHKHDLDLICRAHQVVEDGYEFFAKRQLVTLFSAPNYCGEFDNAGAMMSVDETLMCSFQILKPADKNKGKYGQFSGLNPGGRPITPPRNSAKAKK

RXR/NURR1 = details: Ogundare et al., 2010; cited from earlier work
FXR = FXR (Homo sapiens, UniProt Q96RI1); details: Ogundare et al., 2010; cited from earlier work
Sequence of FXR (Q96RI1 whole entry, species assumed): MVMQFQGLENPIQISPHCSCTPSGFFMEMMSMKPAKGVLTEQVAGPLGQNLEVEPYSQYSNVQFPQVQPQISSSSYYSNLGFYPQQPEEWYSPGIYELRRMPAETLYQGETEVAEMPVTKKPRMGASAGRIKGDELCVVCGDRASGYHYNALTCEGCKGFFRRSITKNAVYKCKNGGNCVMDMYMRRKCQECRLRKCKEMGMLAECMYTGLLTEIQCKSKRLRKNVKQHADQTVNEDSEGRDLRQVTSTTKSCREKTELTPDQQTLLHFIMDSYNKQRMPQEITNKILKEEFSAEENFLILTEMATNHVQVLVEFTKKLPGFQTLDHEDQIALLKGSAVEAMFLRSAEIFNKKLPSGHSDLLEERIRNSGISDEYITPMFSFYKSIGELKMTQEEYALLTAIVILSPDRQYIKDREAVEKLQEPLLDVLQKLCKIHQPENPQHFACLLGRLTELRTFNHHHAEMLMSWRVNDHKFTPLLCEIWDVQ

LXR = details: Ogundare et al., 2010; cited from earlier work
[3] = Body weight of mice after i.p. deuterated ENT-03; type: in vivo
From the text: The presence of the deuterium on the side chain likely slows the action of the 2-methylacyl-coenzyme A racemase on C-25, the subsequent action of the dehydrogenase that produces the 24,25-trans-unsaturated derivative by removing the deuterium atoms at C24 and C25, and the subsequent hydration and oxidation at the C24 bond catalyzed by the D-bifunctional protein. Instead, the metabolism of ENT-03D3 will begin with the oxidation at C24 by CYP46A1, yielding the following compound: […]

PTPN11/SHP2 = PTPN11/SHP2 (Homo sapiens, UniProt Q06124); assay: Phosphatase assay PTPN11/SHP2; type: biochemical; details: Table 2C; read-out: Compound IC50 (M) PTPN11/SHP2

Structure (SMILES): CC(C)[C@@H](CC[C@@H](C)[C@H]1CC[C@H]2[C@@H]3[C@H](O)C[C@H]4C[C@@H](NCCCNCCCCN)CC[C@]4(C)[C@H]3CC[C@]12C)OS(=O)(=O)O (single isomer, unassigned) [ENT-01, squalamine phosphate]
number of significant features, Down-regulated, fold change threshold 1.3× ([1]; Old vs young, both treated): 1606
number of significant features, Down-regulated, fold change threshold 2× ([1]; Old vs young, both treated): 267
number of significant features, Down-regulated, fold change threshold 4× ([1]; Old vs young, both treated): 69
number of significant features, Down-regulated, fold change threshold 8× ([1]; Old vs young, both treated): 36
number of significant features, Down-regulated, fold change threshold 16× ([1]; Old vs young, both treated): 27
number of significant features, Down-regulated, fold change threshold Any ([1]; Old vs young, both treated): 7534
number of significant features, Up-regulated, fold change threshold 1.3× ([1]; Old vs young, both treated): 1647
number of significant features, Up-regulated, fold change threshold 2× ([1]; Old vs young, both treated): 559
number of significant features, Up-regulated, fold change threshold 4× ([1]; Old vs young, both treated): 263
number of significant features, Up-regulated, fold change threshold 8× ([1]; Old vs young, both treated): 178
number of significant features, Up-regulated, fold change threshold 16× ([1]; Old vs young, both treated): 135
number of significant features, Up-regulated, fold change threshold Any ([1]; Old vs young, both treated): 7479
number of significant features, Down-regulated, fold change threshold 1.3× ([1]; treatment vs control (old)): 2235
number of significant features, Down-regulated, fold change threshold 2× ([1]; treatment vs control (old)): 431
number of significant features, Down-regulated, fold change threshold 4× ([1]; treatment vs control (old)): 66
number of significant features, Down-regulated, fold change threshold 8× ([1]; treatment vs control (old)): 25
number of significant features, Down-regulated, fold change threshold 16× ([1]; treatment vs control (old)): 11
number of significant features, Down-regulated, fold change threshold Any ([1]; treatment vs control (old)): 7460
number of significant features, Up-regulated, fold change threshold 1.3× ([1]; treatment vs control (old)): 2430
number of significant features, Up-regulated, fold change threshold 2× ([1]; treatment vs control (old)): 766
number of significant features, Up-regulated, fold change threshold 4× ([1]; treatment vs control (old)): 317
number of significant features, Up-regulated, fold change threshold 8× ([1]; treatment vs control (old)): 168
number of significant features, Up-regulated, fold change threshold 16× ([1]; treatment vs control (old)): 116
number of significant features, Up-regulated, fold change threshold Any ([1]; treatment vs control (old)): 7553
number of significant features, Down-regulated, fold change threshold 1.3× ([1]; treatment vs control (young)): 2367
number of significant features, Down-regulated, fold change threshold 2× ([1]; treatment vs control (young)): 642
number of significant features, Down-regulated, fold change threshold 4× ([1]; treatment vs control (young)): 144
number of significant features, Down-regulated, fold change threshold 8× ([1]; treatment vs control (young)): 47
number of significant features, Down-regulated, fold change threshold 16× ([1]; treatment vs control (young)): 12
number of significant features, Down-regulated, fold change threshold Any ([1]; treatment vs control (young)): 7553
number of significant features, Up-regulated, fold change threshold 1.3× ([1]; treatment vs control (young)): 1430
number of significant features, Up-regulated, fold change threshold 2× ([1]; treatment vs control (young)): 232
number of significant features, Up-regulated, fold change threshold 4× ([1]; treatment vs control (young)): 58
number of significant features, Up-regulated, fold change threshold 8× ([1]; treatment vs control (young)): 38
number of significant features, Up-regulated, fold change threshold 16× ([1]; treatment vs control (young)): 28
number of significant features, Up-regulated, fold change threshold Any ([1]; treatment vs control (young)): 7460
mRNA levels for all of the genes in Table 5A, in words (stomach mRNA): significant increase

IC50 (PTPN11/SHP2-FL (E76K)): 43 nM
Structure (SMILES): CC(CCCC(C)C1CCC2C3C(O)CC4CC(NCCCNCCCCN)CCC4(C)C3CC(O)C12C)C(=O)O (single isomer, unassigned) [ENT-05]

Structure (SMILES): CC(CCCC(C)C1CCC2C3C(O)CC4CC(NCCCNCCCCN)CCC4(C)C3CCC12C)C(=O)O (single isomer, unassigned) [ENT-06]
activity at PTPN2, in words (PTPN2/TC-PTP): inactive
activity at PP1B, in words (PP1B): inactive
activity at PTPN6/SHP1, in words (PTPN6/SHP1): inactive
activity at PP2A alpha, in words [2]: inactive
activity at PP1A, in words (PP1A): inactive
IC50 (PTPN11/SHP2-FL (E76K)): 345 nM

Structure (SMILES): C[C@H](CCC[C@@H](C)[C@H]1CCC2C3C(CC[C@@]21C)[C@@]1(C)CCC(=O)C=C1C[C@H]3O)C(=O)O (stereo partly drawn) [7-HOCA, 7-alpha hydroxy-3-oxo-4-cholestenoic acid]
activation of RXR/NURR1 receptors (RXR/NURR1): did not activate
activation of FXR receptor (FXR): did not activate
activation of LXR receptor (LXR): did not activate

Structure (SMILES): [2H]C([2H])(CCC(C)C1CCC2C3C(O)CC4CC(NCCCNCCCCNCCCN)CCC4(C)C3CCC12C)C([2H])(C)C(=O)O (stereo not drawn) [ENT-03D3]
effect on body weight, in words [3]: gained weight

Structure (SMILES): CCc1oc2cc(S(=O)(=O)Nc3ccc(S(=O)(=O)Nc4nccs4)cc3)ccc2c1C(=O)c1cc(Br)c(O)c(Br)c1 [PTP1B Inhibitor, 3-(3,5-Dibromo-4-hydroxy-benzoyl)-2-ethyl-benzofuran-6-sulfonicacid-(4-(thiazol-2-ylsulfamyl)-phenyl)-amide]
IC50 (PTPN11/SHP2): 1.82e-06 M

Source: patent US12503485B2, “Human aminosterol ENT-03 compounds, related compositions comprising the same, and methods of using the same” (Enterin, Inc., priority 2019, dated 2025)
